The source of these data is paper PMC10253536, “Bradykinin and Neurotensin Analogues as Potential Compounds in Colon Cancer Therapy” (International Journal of Molecular Sciences, 2023).

Data set [1] is described as follows: Stability test in human plasma. The note with it: for stability in human plasma (in words): 0.4 mg/mL, 37 °C, up to 24 h, TCA or formic acid/urea procedure depending on peptide, RP-HPLC 223 nm, at least triplicates. As for the experimental part: To check the stability of the studied peptides in human plasma, 24 h incubation of peptides in the appropriate medium was performed. For the studies, two methods were used. The first one involved the presence of trichloroacetic acid (TCA) as a protein precipitating reagent, while the second one involved a mixture of formic acid and urea. […] The procedure with the mixture of the formic acid and urea was used for BK-3, BK-4, BK-6, and BK-8.
• A. TCA procedure for peptides: BK, BK-1, BK-2, BK-5, BK-7, NT, and NT analogues.
Peptide stability tests were performed according to a TCA stability assay based on the method used by Nguyen et al.. Peptides were dissolved in water, mixed with 25% human plasma to a final concentration of 0.4 mg/mL, and incubated at 37 °C with agitation (300 rpm, Thermomixer, Eppendorf AG, Hamburg, Germany). After 0, 1, 2, 3, 4, and 24 h, […] of the solution was taken and mixed with 15% TCA to obtain a final concentration of 3% (v/v). The samples were incubated in ice for 10 min and centrifuged for 10 min (12,000 rpm, Microfuge 16, Beckman Coulter, Brea, CA, USA).
In the second method, peptides were dissolved in water, mixed with 25% human plasma to a final concentration 0.4 mg/mL, and incubated at 37 °C with agitation (300 rpm, Thermomixer, Eppendorf AG, Hamburg, Germany). After 0, 1, 2, 3, 4, and 24 h, […] of the solution was taken and mixed with 25 μL of a mixture of 1050 µL 6 M urea, 330 µL formic acid, and 120 µL water to a final peptide concentration of 0.4 mg/mL. The samples were incubated in ice for 10 min and centrifuged for 10 min (12,000 rpm, Microfuge 16, Beckman Coulter, Brea, CA, USA). Supernatants were analyzed by RP-HPLC on column Kinetex (2.6 µm, XB-C18 100 Å 150 × 2.1 mm) (Phenomenex, Torrance, CA, USA) using a linear gradient of acetonitrile (1–80% over 20 min) with detection at 223 nm. Peptides were quantified by their peak areas relative to the initial peak areas (0 min). All stability tests were performed at least in triplicates. As control samples, peptides dissolved only in water under the same conditions were used.

Data set [2] has as its system HCT116 cells. The data set is described as follows: Flow cytometry phenotype (CD133, CD44, CD29), HCT116 colonospheres. In kind it is cell-based, human. The note with it: spherical HCT116, 500 µg/mL, 24 h, vs untreated control, n = 5. As for the experimental part:
Figure 4 The phenotype of the colorectal cancer HCT116 cell line expanded in the form of colonospheres and treated with (A,C,E) bradykinin and (B,D,F) neurotensin analogues (500 µg/mL) for 24 h. The data are presented as fold change of frequency of cells with given phenotype in relation to untreated control cells. The control value is set at a level of 1. Bars and whiskers represent the median with min–max values (* p < 0.05 vs. untreated control cells; • p < 0.05 vs. BK treated cells; ANOVA Kruskal–Wallis test, n = 5).
Similarly as for the adherent HTC116 cells, we also tested the spherical form with respect to the presence of CD29 and CD44 integrins on their surface but not only in CD133+ (Figure 4C,D) but also in CD133 (Figure 4E,F). In these studies, the count of CD133+, CD44+, and CD29+ cells was not affected in spherical culture, while at the same time, we observed that CSCs in colonospheres were more likely to change the level of these markers within the CD133-negative population. […] In contrast, the analogues BK-4, BK-6, and BK-8 decreased the number of these cells.
HCT116 in both adherent (5 × 10^4 cells/mL in 24-well plate) and spherical forms (8 × 10^5/mL cells in 24-well ultra-low attachment plates) were maintained in appropriate medium. […]

Data set [3] concerns HCT116 cells. The data set is described as follows: Cell death assay (7-AAD, flow cytometry), spherical HCT116 cells. Type of data set: cell-based, human. The note with it: spherical HCT116, 500 µg/mL, 24 h, vs untreated control, n = 4. From the text: We evaluated the percentage of nonviable cells of HTC116 following analogue treatment via a flow cytometric assay using 7-Amino Actinomycin D (7-AAD) dye according to the procedure presented in the Materials and Methods Section 4.6. This dye is excluded by living cells but binds selectively to the DNA of damaged permeabilized cells. We learned that the number of 7AAD-positive cells changed according to different scenarios in CRC cells cultured in adherent and spherical forms following the incubation with BK and NT analogues (Figure 6).
Figure 6 Analysis of the viability of colorectal cancer HCT116 cells expanded in spherical (A,B) or adherent (C,D) form and treated with bradykinin (A,C) and neurotensin analogues (B,D) (500 µg/mL) for 24 h. Cells were incubated with 7-AAD and analyzed by flow cytometry. The y-axis presents the fold increase in the frequency of 7-AAD+ cells compared to untreated control cells. (* p < 0.05 vs. untreated control cells; • p < 0.05 vs. BK/NT-treated cells; ANOVA Kruskal–Wallis test, n = 4). Data presented as bars and whiskers representing the median with min–max values).
Following BK and NT analogue treatment of HCT116 cells, we evaluated the proportion of dead cells in our samples. For this purpose, we used a 7AAD Via Probe (BD Biosciences, San Jose, CA, USA). […]
Background: Flow cytometry measures light scatter and fluorescence of single cells or particles in a stream.

Non-standard residues stand in square brackets, D forms with d. Residues, ends and D or L forms follow the SMILES beside them. No end group written: not given here. *: point of attachment. Acetyl(1-adamantyl) = O=C(CC12CC3CC(CC(C3)C1)C2)*; Hyp = O=C(O)[C@@H]1C[C@@H](O)CN1; 2Thi = N[C@@H](Cc1cccs1)C(=O)O; Ac6c = NC1(C(=O)O)CCCCC1

With `N=C(N)NCCC[C@@H](N)C(=O)N[C@@H](CCCNC(=N)N)C(=O)N1CCC[C@H]1C(=O)N1C[C@H](O)C[C@H]1C(=O)NCC(=O)N[C@@H](Cc1cccs1)C(=O)N[C@@H](CO)C(=O)N[C@H](Cc1ccccc1)C(=O)NC1(C(=O)N[C@@H](CCCNC(=N)N)C(=O)O)CCCC1` [BK-2] (HELM PEPTIDE1{[dR].R.P.[Hyp].G.[O=C([C@H](Cc1cccs1)N[*:1])[*:2]].S.[dF].[O=C(C1(N[*:1])CCCC1)[*:2]].R}$$$$V2.0), the “stability in human plasma (in words)” value in data set [1] (25% human plasma) is reported as “most stable”. Regarding `N=C(N)NCCC[C@H](NC(=O)[C@H](Cc1cccs1)NC(=O)C1(NC(=O)[C@H](CO)NC(=O)[C@H](Cc2cccs2)NC(=O)CNC(=O)[C@@H]2C[C@@H](O)CN2C(=O)[C@@H]2CCCN2C(=O)[C@H](CCCNC(=N)N)NC(=O)[C@@H](CCCNC(=N)N)NC(=O)CC23CC4CC(CC(C4)C2)C3)CCCCC1)C(=O)O` [BK-3], the “stability in human plasma (in words)” value in data set [1] (25% human plasma) is “least stable”. The compound further displayed a fraction remaining at 24 h, 0.4 mg/mL in data set [1] (human, 25% human plasma) of about 40%. Take `N=C(N)NCCC[C@H](NC(=O)C1(NC(=O)[C@@H](Cc2ccccc2)NC(=O)[C@H](CO)NC(=O)[C@H](Cc2cccs2)NC(=O)CNC(=O)[C@@H]2C[C@@H](O)CN2C(=O)[C@@H]2CCCN2C(=O)[C@H](CCCNC(=N)N)NC(=O)[C@@H](CCCNC(=N)N)NC(=O)CC23CC4CC(CC(C4)C2)C3)CCCCC1)C(=O)O` [BK-4] ({Acetyl(1-adamantyl)}-[dR]RP[Hyp]G[2Thi]S[dF][Ac6c]R-OH): the “stability in human plasma (in words)” value in data set [1] (25% human plasma) is “most stable”. Same read-out and setting: as for `N=C(N)NCCC[C@@H](N)C(=O)N[C@@H](CCCNC(=N)N)C(=O)N1CCC[C@H]1C(=O)N1C[C@H](O)C[C@H]1C(=O)NCC(=O)N[C@@H](Cc1cccs1)C(=O)N[C@@H](CO)C(=O)N[C@H](Cc1ccccc1)C(=O)N1CCCC[C@H]1C(=O)N[C@@H](CCCNC(=N)N)C(=O)O` [BK-5] (HELM PEPTIDE1{[dR].R.P.[Hyp].G.[O=C([C@H](Cc1cccs1)N[*:1])[*:2]].S.[dF].[O=C([C@@H]1CCCCN1[*:1])[*:2]].R}$$$$V2.0), the entry is “most stable”. With `N=C(N)NCCC[C@H](NC(=O)[C@H](Cc1cccs1)NC(=O)[C@H]1CCCCN1C(=O)[C@H](CO)NC(=O)[C@H](Cc1cccs1)NC(=O)CNC(=O)[C@@H]1C[C@@H](O)CN1C(=O)[C@@H]1CCCN1C(=O)[C@H](CCCNC(=N)N)NC(=O)[C@@H](CCCNC(=N)N)NC(=O)CC12CC3CC(CC(C3)C1)C2)C(=O)O` [BK-8], the share remaining at 24 h, 0.4 mg/mL in data set [1] (human, 25% human plasma) was found to be 70%. For the compound `CC(C)C[C@H](NC(=O)[C@@H](NC(=O)[C@H](Cc1ccc(O)cc1)NC(=O)[C@@H]1CCCN1C(=O)[C@H](CCCCN)NC(=O)[C@H](CCCCN)NC(=O)CNC(=O)[C@H](CCC(=O)O)NC(=O)[C@@H]1CCCN1)C(C)(C)C)C(=O)O` [NT-14] (HELM PEPTIDE1{P.E.G.K.K.P.Y.[CC(C)(C)[C@H](N[*:1])C(=O)[*:2]].L}$$$$V2.0), the “stability in human plasma (in words)” value in data set [1] (25% human plasma) was “better stability than the native peptide”.

Consider Neurotensin [NT], for which the “CD133-CD44+CD29+ cell count in colonospheres” value in the data set with HCT116 cells [2] is on record as “significantly increasing”. For the same compound, the “number of nonviable 7AAD+ cells, spherical form” value in the data set with HCT116 cells [3] is listed as “prominently increased”. Turning to RPPGFSPFR [BK, Bradykinin], in data set [1] (human, plasma), the amount remaining at 4 h, 0.4 mg/mL is 96% and the share remaining at 24 h, 0.4 mg/mL was about 50%.

By fraction remaining is commonly meant the share of the starting amount still present when the sample was taken. A high value points to greater stability.
